One data set relates to human liver microsomes. The data set is described as follows: In vitro kinetic study of PPL metabolism (substrate depletion) in human liver microsomes. The class given is in vitro ADME. The procedure:
The in vitro kinetic study was performed setting the incubation conditions through the maintenance of initial velocity (V0); 0.45 mg/mL microsomal protein and 16 min time incubation were selected and the substrate concentration was ranged from 0.38 to 283.6 μM. The substrate depletion was quantified employing an analytical validated method (Tables S1, S2 and S3 and Fig. S1-Supplementary Information).
The metabolism was evaluated by measuring the rate of disappearance of the PPL peak. The incubations were performed in triplicate using 10 mL amber tubes. The metabolism medium consisted of substrate, a NADPH regeneration system solution A (1.3 mM NADP^+ and 3.3 mM glucose-6-phosphate), a NADPH regeneration system solution B (0.4 U/mL glucose-6-phosphate dehydrogenase), HLM and a potassium phosphate buffer pH 7.4 (100 mM) in a total volume of 200 μL. This microsomal medium was incubated in a shaking water bath at 37 °C. After pre-warming for 5 min at 37 °C to favor the formation of NADPH from the solutions A and B, the reaction was initiated by the addition of the HLM. To determine the enzymatic kinetic parameters, the linear conditions for microsomal protein concentration and for incubation time were optimized. The microsomal protein concentration was evaluated from 0.1 to 1.5 mg of protein per mL (n = 3), and the incubation time was varied from 0 to 40 min (n = 3). The linear range was obtained from these parameters and used to perform the substrate variation concentration at V0 conditions. The reactions were stopped by the addition of 200 μL of cold acetonitrile, gently agitated for 20 s and then centrifuged for 5 min at 2860x g. Finally, aliquots of the supernatant were removed and injected into the chromatographic system. Control incubations were performed in the absence of the cofactor solution and in the absence of the HLM. The difference between ‘with’ and ‘without’ NADPH was attributed to CYP450-mediated metabolism.
The kinetic parameters were calculated from nonlinear regression using GraphPad Prism Version 3.03 (San Diego, CA, USA). The Intrinsic Clearance (CLint) was obtained considering the Hill coefficient. The Unbounded Intrinsic Clearance (CLuint), Predicted in vivo Clearance (CL) and Hepatic Clearance (CLH) were determined according to Subramarian and Tracy[15] and Austin et al.[17]. Hepatic extraction ratio was calculated according to Kashuba et al.[21]. Dose-dependent inhibition parameters were determined employing SigmaPlot version 12.0 (Chicago, IL, USA). The Lineweaver-Burk plot was used to determine the inhibition profile. The second plot of slopes from Lineweaver-Burk plot versus PPL concentrations was utilized to calculate the Ki. The parameters kinact and KI in time-dependent inhibition were calculated employing GraphPad Prism Version 3.03.
(In general: Liver microsomes are a subcellular fraction often used to study metabolism.)

Data set [1] in a line: Piperlongumine plasma protein binding (ultrafiltration). The class given is in vitro ADME. The procedure: Piperlongumine-protein binding. An in vitro study with a microsomal and plasma protein was carried out using a concentration of PPL approximately corresponding to its S50 (n = 3). The plasma protein binding was evaluated to predict the in vivo clearance, using a plasma protein concentration of 42 mg/mL. The samples were incubated with pooled human liver microsomes at 37 °C as described in section above. The same V0 conditions obtained (protein concentration and incubation time) were applied in this study, but in the absence of the cofactor NADPH. Furthermore, a control sample without protein was analyzed simultaneously for comparison purposes. These mixtures were added to the centrifugal filter device (Microcon YM-30, 30,000 molecular weight cut-off; Millipore Corporation, Bedford, MA, USA) and centrifuged at 21800 x g for 30 min at 37 °C (Hitachi CF16RXII, Himac, Tokyo, Japan). The ultra-filtrate was directly assayed by high-performance liquid chromatography at the conditions previously described.

For data set [2], the system named is recombinant human CYP (rhCYP) isoforms. The data set is described as follows: P450 reaction phenotyping by rhCYP isoforms. The data set is classed as in vitro ADME. The note with it: specific inhibitors in pooled HLM and recombinant CYP450 isoforms. The procedure:
The capacity of selected major human P450 isoforms to metabolize PPL was screened using human recombinant isoenzymes. Briefly, PPL (S50 concentration) was added into a 200 μL incubation mixture containing P450 isoform (50 pmol/mL for CYP3A4, CYP1A2, CYP2C9, 2B6, 2D6 and 2C19; 25 pmol/mL for CYP2C8 and […]; final concentrations), NADPH regeneration system solution A (1.3 mM NADP^+ and 3.3 mM glucose-6-phosphate), NADPH regeneration system solution B (0.4 U/mL glucose-6-phosphate dehydrogenase), potassium phosphate buffer pH 7.4 (100 mM), except for CYP2C9 where the phosphate buffer was substituted by tris buffer pH 7.5 (100 mM), maintaining for 50 min in shaking water bath. In order to enhance the sensibility one sample was pooled from 4 single reactions. PPL metabolites were analyzed by a GC-MS as described previously. The MS peak areas of PPL metabolites were recorded to determine the contributions of the P450 enzymes.
Phenotyping study at 50 min. In order to evaluate the CYP isoforms involved in M4 formation, a similar study as described in the main text was performed, except by the time of incubation of 50 min (Fig. S13).

The next data set concerns the target CYP2C9 (Homo sapiens, UniProt P11712). In words: IC50 assay, diclofenac 4'-hydroxylation in HLM.

Molecules are shown by their SMILES.

Results on one compound are retold here after paper PMC5041077, “Metabolic profile and safety of piperlongumine” (Scientific Reports, 2016).

CYP2C9, sequence (P11712 whole entry): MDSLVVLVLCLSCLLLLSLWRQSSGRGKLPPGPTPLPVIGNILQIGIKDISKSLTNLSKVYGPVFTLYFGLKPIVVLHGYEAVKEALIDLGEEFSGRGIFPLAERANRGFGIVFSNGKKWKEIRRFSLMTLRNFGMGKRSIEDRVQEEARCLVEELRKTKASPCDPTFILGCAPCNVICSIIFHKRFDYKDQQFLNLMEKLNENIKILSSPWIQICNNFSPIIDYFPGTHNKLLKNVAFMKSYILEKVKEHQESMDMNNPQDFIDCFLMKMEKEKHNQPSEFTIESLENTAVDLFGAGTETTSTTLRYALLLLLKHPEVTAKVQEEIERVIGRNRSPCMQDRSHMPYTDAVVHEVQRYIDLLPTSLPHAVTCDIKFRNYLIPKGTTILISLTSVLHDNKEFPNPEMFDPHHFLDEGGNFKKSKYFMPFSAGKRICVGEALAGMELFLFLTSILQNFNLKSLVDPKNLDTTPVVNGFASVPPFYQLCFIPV

As a reminder, the Hill coefficient is a measure of the steepness of the concentration-response curve. The term IC50 denotes the midpoint of a concentration-inhibition curve. Higher therefore signals lower potency. `COc1cc(/C=C/C(=O)N2CCC=CC2=O)cc(OC)c1OC` [PPL, Piperlongumine] had a Hill coefficient with human liver microsomes (HLM 0.45 mg/mL, 16 min) of 3.0. Also, in the data set on human liver microsomes (HLM 0.45 mg/mL, 16 min, sigmoidal profile), the S50 stood at 127.7 µM. In the data set on human liver microsomes (HLM 0.45 mg/mL, 16 min, substrate 0.38 to 283.6 μM, sigmoidal profile), the Vmax is 5.5 ± 0.5 nmol/mg protein/min. Also, in the data set with human liver microsomes (human vs rat liver microsomes, rat value ref 19), the “S50 in human relative to the value observed in rats” value amounted to 2.7 times. In data set [1] (PPL approx. S50, plasma protein 42 mg/mL), this compound came in with a plasma binding of 93%. In addition, in data set [1] (plasma protein (42 mg/mL), PPL 127.70 μM, read-out: fuplasma (free fraction of the compound in plasma)), the fraction unbound at 16 min, 127.7 μM worked out at 0.07. Besides, the “main CYP isoenzymes involved in PPL metabolism” value in data set [2] was “CYP1A2 and CYP3A4”. At CYP2C9, this compound registered an IC50 of more than 100 µM.
